What was measured:
[1] = system: RBL-2H3 rat mast cells; assay: IgE/FcεRI receptor mediated leukotriene C4 release, RBL-2H3 mast cells; format: cell-based; settings: RBL-2H3, IgE/DNP-BSA challenge, 30 min pre-incubation, 1-100 μM, N = 3-4, read-out: EC50 (mean ± SEM), inhibition of leukotriene C4 release
Experimental: Mast Cell Cultures. RBL-2H3 mast cells were a gift from Dr. Reuben P. Siraganian (Laboratory of Microbiology and Immunology, National Institute of Dental Research, National Institute of Health). The cells were maintained as monolayer cultures in 75- or 150-cm^2 flask in Eagle's essential medium supplemented with 20% fetal calf serum. Human fetal livers (16 to 21 weeks of gestational age) were obtained from prostaglandin-induced human abortuses. Subsequently, single cell suspensions were prepared and mononuclear cells were isolated by centrifugation on Ficoll-Hypaque gradients as described (Malaviya, R., et al., (1999) J Biol Chem, 274, 27028-27038). Isolated cells were cultured for 8 weeks in the presence of 100 ng/ml rhSCF, 2 ng/ml rhIL-4 (Malaviya, R., et al., (1999) J Biol Chem, 274, 27028-27038; Xia, H. Z., et al., (1997) J Immunol, 159, 2911-2921). Culture medium was replaced with fresh medium once a week for the first 2 weeks and twice a week thereafter. All human tissue specimens were used following the guidelines of the Parker Hughes Institute Institutional Review Board on the Use of Human Subjects in Research for secondary use of pathologic or surgical tissue. At the end of the 8 weeks the fetal liver derived human mast cell culture contained 70-90 percent mast cells, based on toluidine blue and tryptase staining (Xia, H. Z., et al., (1997) J Immunol, 159, 2911-2921).
Stimulation of Mast Cells. RBL-2H3 rat mast were sensitized with monoclonal anti-DNP IgE antibody (0.24 mg/ml) for 1 h at 37° C. in a 48-well tissue culture plate. Unbound IgE was removed by washing the cells with PIPES-buffered saline. After washing, PIPES-buffered saline containing 1 mM calcium chloride was added to the monolayers of the RBL-2H3 cells. The cells were challenged with 20 ng/ml DNP-BSA for 30 min at 37° C. The plate was centrifuged at 200 g for 10 min at 4° C. Supernatants were removed and saved. Fetal liver-derived human mast cells were resuspended in culture medium at a cell density of 5×10^6/ml and sensitized with human IgE (150 μg/ml) for 3 h at 4° C. After sensitization the cells were washed with tyrode buffer containing 1 mM calcium and 1 mM magnesium and challenged with mouse monoclonal anti-human IgE (40 μg/ml) for 30 min at 37° C. To study the effect of test drugs, RBL-2H3 rat mast cells or human mast cells were incubated with the drugs at the indicated concentrations or vehicle for 30 min prior to antigen challenge.
Mediator Release Assay. Leukotriene C4 levels were estimated in cell free supernatants of mast cells by immunoassay (Malaviya, R. and Abraham, S. N., (1995) Methods Enzymol, 253, 27-43).
Mast cells release large amounts of leukotrienes upon IgE receptor ligation. Because of the reported ability of LFM as a mast cell inhibitor, we utilized 13 analogues of LFM (Table 1) and examined their effect on IgE/FcεERI receptor mediated mast cell leukotriene C4 release. RBL-2H3 cells, a mucosal mast cell line, were treated with 5 different concentrations of the compounds ranging from 1 μM to 100 μM or vehicle for 30 min before challenge with antigen (DNP-BSA) at 37° C. Leukotriene C4 release was quantitated in the extracellular medium employing a previously described ELISA (Malaviya, R. and Abraham, S. N., (1995) Methods Enzymol, 253, 27-43).

[2] = target: BTK (Mus musculus, UniProt P35991); assay: BTK inhibition assay of benzopyran derivatives; format: biochemical; settings: for IC50: BTK inhibitory activity; for BTK inhibitory activity in words: kinase assays
[3] = system: human leukemia cells; assay: Ceramide or vincristine sensitivity of human leukemia cells; format: cell-based; settings: co-administration with chemotherapeutic agent
Source text: FIG. 23: Effects of DDE-11 on ceramide or vincristine—sensitivity of human leukemia cells. Studies were done as described above for FIG. 17, but using DDE 11 as the BTK inhibitor.

[4] = system: NALM-6 cells; assay: Apoptosis induction, TUNNEL and flow cytometric assay; format: cell-based, human; settings: compound alone, 100 μM

Chain of BTK (P35991 whole entry): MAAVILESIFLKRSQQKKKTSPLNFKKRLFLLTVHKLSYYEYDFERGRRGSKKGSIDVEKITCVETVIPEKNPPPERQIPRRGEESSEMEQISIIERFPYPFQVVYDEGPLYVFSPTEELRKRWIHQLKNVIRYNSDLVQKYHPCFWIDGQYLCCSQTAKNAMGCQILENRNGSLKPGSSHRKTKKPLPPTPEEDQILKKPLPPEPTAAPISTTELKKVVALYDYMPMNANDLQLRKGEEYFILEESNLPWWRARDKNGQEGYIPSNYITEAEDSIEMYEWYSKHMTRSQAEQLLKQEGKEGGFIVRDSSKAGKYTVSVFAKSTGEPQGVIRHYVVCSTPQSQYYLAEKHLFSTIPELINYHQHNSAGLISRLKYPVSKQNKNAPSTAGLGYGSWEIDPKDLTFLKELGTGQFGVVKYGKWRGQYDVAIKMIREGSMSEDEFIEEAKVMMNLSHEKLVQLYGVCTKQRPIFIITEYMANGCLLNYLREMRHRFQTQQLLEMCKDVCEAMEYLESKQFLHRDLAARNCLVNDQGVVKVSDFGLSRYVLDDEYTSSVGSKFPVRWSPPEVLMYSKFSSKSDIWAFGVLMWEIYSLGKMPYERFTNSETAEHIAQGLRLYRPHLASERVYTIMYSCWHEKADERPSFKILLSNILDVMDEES

Row | SMILES | EC50 [1] | melting point | IC50 [2] | other results
1 | CC(O)=C(C#N)C(=O)Nc1cccc(F)c1 [LFM-A11, α-Cyano-β-hydroxy-β-methyl-N-(3-fluorophenyl)propenamide] | > 100 µM | 136 to 138 °C |  | 
2 | C/C(O)=C(\C#N)C(=O)Nc1ccc(OC(F)(F)F)c(Br)c1 [LFM-A17, α-Cyano-β-hydroxy-β-methyl-N-[3-bromo-4-(trifluoromethoxy)-phenyl]propenamide] |  | 178 to 179 °C |  | 
3 | CCCc1cc(=O)oc2cc(O)cc(O)c12 [DDE181, 5,7-Dihydroxy-4 propyl-2H-1-benzopyran-2-one] |  |  | < 45.4 µM | BTK inhibitory activity in words [2]: potent BTK inhibitors
4 | CC(O)=C(C#N)C(=O)Nc1ccccc1 [LFM-A14, α-Cyano-β-hydroxy-β-methyl-N-(phenyl)propenamide] | > 100 µM | 134 to 135 °C |  | 
5 | CC(O)=C(C#N)C(=O)Nc1ccccc1C(F)(F)F [LFM-A4, α-Cyano-β-hydroxy-β-methyl-N-[2-(trifluoromethyl)phenyl]-propenamide] | > 100 µM | 61 to 63 °C |  | 
6 | CC(O)=C(C#N)C(=O)Nc1ccc(Cl)cc1 [LFM-A2, α-Cyano-β-hydroxy-β-methyl-N-(4-chlorophenyl)propenamide] | 58 ± 13 µM | 209 to 211 °C |  | 
7 | CC(O)=C(C#N)C(=O)Nc1ccc(C(F)(F)F)cc1 [LFM, α-Cyano-β-hydroxy-β-methyl-N-[4-(trifluoromethyl)phenyl]-propenamide, reference compound] | 34 ± 14.5 µM |  |  | 
8 | CC(O)=C(C#N)C(=O)Nc1ccc(OC(F)(F)F)cc1 [LFM-A12, α-Cyano-β-hydroxy-β-methyl-N-[4-(trifluoromethoxy)phenyl]-propenamide] | 30 ± 5.6 µM | 182 to 183 °C |  | 
9 | CC(O)=C(C#N)C(=O)Nc1cccc(Cl)c1 [LFM-A10, α-Cyano-β-hydroxy-β-methyl-N-(3-chlorophenyl)propenamide] | 51 ± 12 µM | 184 to 187 °C |  | 
10 | CC(O)=C(C#N)C(=O)Nc1cccc(Br)c1 [LFM-A9, α-Cyano-β-hydroxy-β-methyl-N-(3-bromophenyl)propenamide] | > 100 µM | 184 to 185 °C |  | 
11 | CC(O)=C(C#N)C(=O)Nc1ccccc1Br [LFM-A5, α-Cyano-β-hydroxy-β-methyl-N-(2-bromophenyl)propenamide] | 46 ± 10 µM | 98 to 100 °C |  | 
12 | C/C(O)=C(\C#N)C(=O)Nc1cc(Cl)ccc1Cl [LFM-A18, α-Cyano-β-hydroxy-β-methyl-N-(2,5-dichlorophenyl)-propenamide] |  | 143 to 144 °C |  | 
13 | CC(O)=C(C#N)C(=O)Nc1ccccc1F [LFM-A7, α-Cyano-β-hydroxy-β-methyl-N-(2-fluorophenyl)propenamide] | > 100 µM | 118 to 119 °C |  | 
14 | C/C(O)=C(\C#N)C(=O)Nc1ccc(Br)cc1Br [LFM-A19, α-Cyano-β-hydroxy-β-methyl-N-(2,4-dibromophenyl)-propenamide] |  | 181 °C |  | 
15 | C/C(O)=C(\C#N)C(=O)Nc1ccc(S(C)(=O)=O)cc1 [LFM-A15, α-Cyano-β-hydroxy-β-methyl-N-[4-(methylsulfonyl)phenyl]-propenamide] |  | 205 to 206 °C |  | 
16 | C/C(O)=C(\C#N)C(=O)Nc1ccc(Cl)cc1Cl [LFM-A20, α-Cyano-β-hydroxy-β-methyl-N-(2,4-dichlorophenyl)-propenamide] |  | 143 to 144 °C |  | 
17 | CC(O)=C(C#N)C(=O)Nc1ccc(F)cc1 [LFM-A3, α-Cyano-β-hydroxy-β-methyl-N-(4-fluorophenyl)propenamide] | > 100 µM | 165 to 166 °C |  | 
18 | CC(O)=C(C#N)C(=O)Nc1ccccc1Cl [LFM-A6, α-Cyano-β-hydroxy-β-methyl-N-(2-chlorophenyl)propenamide] | > 100 µM | 93 to 94 °C |  | 
19 | C/C(O)=C(\C#N)C(=O)Nc1cccc(S(C)(=O)=O)c1 [LFM-A16] |  | 213 to 214 °C |  | 
20 | CC(O)=C(C#N)C(=O)Nc1ccc(Br)cc1 [LFM-A1, α-Cyano-β-hydroxy-β-methyl-N-(4-bromophenyl)propenamide] | 64 ± 13.9 µM | 213 to 214 °C |  | 

Second part, led by results:

Row | EC50 [1] | melting point | IC50 [2] | SMILES | other results
21 |  |  | < 48.5 µM | CCc1cc(=O)oc2cc(O)cc(O)c12 [DDE214, 5,7-Dihydroxy-4-ethyl-2H-1-benzopyran-2-one] | BTK inhibitory activity in words [2]: potent BTK inhibitors
22 |  |  | > 308 µM | CCCc1cc(=O)oc2c(C(=O)c3ccccc3)c(O)cc(O)c12 [DDE355] | 
23 |  |  | 98.3 µM | O=c1cc(-c2ccccc2)c2c(O)cc(O)cc2o1 [DDE270, 5,7-Dihydroxy-4-phenyl-2H-1-benzopyran-2-one] | 
24 |  |  | > 381 µM | CCCc1cc(=O)oc2c(C(C)=O)c(O)cc(O)c12 [DDE271, 5,7-Dihydroxy-8-acetyl-4-propyl-2H-1-benzopyran-2-one] | 
25 |  |  | < 36.2 µM | CCCc1cc(=O)oc2c(C(=O)CC)c(O)cc(O)c12 [DDE11, 5,7-Dihydroxy-8-propanoyl-4-propyl-2H-1-benzopyran-2-one] | cytotoxicity of C2-CER and vincristine on co-administration [3]: increaseed the cytotoxicity; apoptosis induction [4]: induces apoptosis; BTK inhibitory activity in words [2]: potent BTK inhibitors
26 |  |  | < 40.3 µM | CCCc1cc(=O)oc2c(C=O)c(O)cc(O)c12 [DDE213, 5,7-Dihydroxy-8-carboxaldehyde-4-propyl-2H-1-benzopyran-2-one] | BTK inhibitory activity in words [2]: potent BTK inhibitors
27 |  |  | > 344 µM | CCCc1cc(=O)oc2c(C(=O)C(C)C)c(O)cc(O)c12 [DDE272] | 
28 |  |  | > 329 µM | CCCc1cc(=O)oc2c(C(=O)CC)c(OC)cc(OC)c12 [DDE229] | 
